“Also recorded” adds a separate entry of the source. Read-outs that look alike come from different tables or passages of the source.
Experiments:
CamA [1] = molecular target: T1, CamA (Clostridioides difficile, UniProt Q183J3); experiment: CamA methylation inhibition assay; type: biochemical; details: for inhibition of CamA activity at single concentration / inhibition of CamA activity (selectivity panel): 10 μM compound; for inhibition of CamA activity at single concentration: 50 nM CamA, 40 μM SAM (Figure 1B); for inhibition of CamA activity (selectivity panel): 40 μM SAM (Figure 4A); for fold difference in CamA inhibition between 11a and 11b: 11a more potent than 11b
T1 sequence (Q183J3 1-577): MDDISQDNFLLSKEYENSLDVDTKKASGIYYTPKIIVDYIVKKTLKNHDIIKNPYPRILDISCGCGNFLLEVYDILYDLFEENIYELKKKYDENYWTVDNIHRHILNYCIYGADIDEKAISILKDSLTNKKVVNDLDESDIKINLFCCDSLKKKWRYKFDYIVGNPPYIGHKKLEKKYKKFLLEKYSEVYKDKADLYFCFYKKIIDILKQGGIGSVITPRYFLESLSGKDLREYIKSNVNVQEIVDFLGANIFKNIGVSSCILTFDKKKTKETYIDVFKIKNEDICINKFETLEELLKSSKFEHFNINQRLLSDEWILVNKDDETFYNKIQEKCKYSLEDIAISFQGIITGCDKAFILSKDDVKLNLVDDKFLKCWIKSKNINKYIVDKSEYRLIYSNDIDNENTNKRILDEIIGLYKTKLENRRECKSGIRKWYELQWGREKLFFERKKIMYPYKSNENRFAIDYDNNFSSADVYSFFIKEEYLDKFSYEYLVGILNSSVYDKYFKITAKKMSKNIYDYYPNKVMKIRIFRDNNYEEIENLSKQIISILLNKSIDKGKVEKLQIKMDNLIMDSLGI

Dam = molecular target: T2, Dam (Escherichia coli, UniProt P0AEE8); experiment: Compound selectivity assay; type: biochemical; details: read-out: inhibition of Dam activity, 10 μM compound, 40 μM SAM (Figure 4C)
T2 sequence (P0AEE8 1-278): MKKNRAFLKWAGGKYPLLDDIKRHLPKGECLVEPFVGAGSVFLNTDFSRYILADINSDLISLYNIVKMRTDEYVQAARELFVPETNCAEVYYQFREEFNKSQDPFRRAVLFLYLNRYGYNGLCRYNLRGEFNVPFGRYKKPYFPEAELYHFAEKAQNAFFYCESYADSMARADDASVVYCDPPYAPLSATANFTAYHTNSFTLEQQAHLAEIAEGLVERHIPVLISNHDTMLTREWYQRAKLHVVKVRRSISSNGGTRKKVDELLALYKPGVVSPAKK

PCIF1 = PCIF1 (Homo sapiens, UniProt Q9H4Z3); experiment: Compound selectivity assay; type: biochemical; details: read-out: inhibition of PCIF1 activity
PCIF1, sequence (Q9H4Z3 whole entry): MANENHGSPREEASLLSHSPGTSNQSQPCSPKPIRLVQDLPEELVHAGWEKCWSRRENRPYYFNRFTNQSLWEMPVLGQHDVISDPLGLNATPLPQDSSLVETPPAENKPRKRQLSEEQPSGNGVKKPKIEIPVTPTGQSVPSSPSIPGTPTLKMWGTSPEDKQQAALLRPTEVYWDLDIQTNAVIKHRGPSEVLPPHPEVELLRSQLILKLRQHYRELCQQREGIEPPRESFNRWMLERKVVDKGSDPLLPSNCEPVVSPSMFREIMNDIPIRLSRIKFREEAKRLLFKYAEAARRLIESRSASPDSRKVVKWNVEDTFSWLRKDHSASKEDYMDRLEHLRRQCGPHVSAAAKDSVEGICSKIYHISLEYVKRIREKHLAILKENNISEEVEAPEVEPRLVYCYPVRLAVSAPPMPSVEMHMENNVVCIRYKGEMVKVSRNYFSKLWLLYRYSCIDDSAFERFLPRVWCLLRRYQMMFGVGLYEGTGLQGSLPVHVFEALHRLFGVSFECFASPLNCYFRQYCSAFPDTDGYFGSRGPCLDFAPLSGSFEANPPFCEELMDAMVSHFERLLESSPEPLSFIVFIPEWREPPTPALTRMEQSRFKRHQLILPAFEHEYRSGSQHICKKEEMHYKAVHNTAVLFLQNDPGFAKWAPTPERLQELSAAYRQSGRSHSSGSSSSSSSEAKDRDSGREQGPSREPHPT

MettL3–MettL14 = MettL3–MettL14 (Homo sapiens, UniProt Q86U44); experiment: Compound selectivity assay; type: biochemical; details: for inhibition at 10 µM: read-out: inhibition of MettL3–MettL14 activity
MettL3–MettL14, sequence (Q86U44 whole entry): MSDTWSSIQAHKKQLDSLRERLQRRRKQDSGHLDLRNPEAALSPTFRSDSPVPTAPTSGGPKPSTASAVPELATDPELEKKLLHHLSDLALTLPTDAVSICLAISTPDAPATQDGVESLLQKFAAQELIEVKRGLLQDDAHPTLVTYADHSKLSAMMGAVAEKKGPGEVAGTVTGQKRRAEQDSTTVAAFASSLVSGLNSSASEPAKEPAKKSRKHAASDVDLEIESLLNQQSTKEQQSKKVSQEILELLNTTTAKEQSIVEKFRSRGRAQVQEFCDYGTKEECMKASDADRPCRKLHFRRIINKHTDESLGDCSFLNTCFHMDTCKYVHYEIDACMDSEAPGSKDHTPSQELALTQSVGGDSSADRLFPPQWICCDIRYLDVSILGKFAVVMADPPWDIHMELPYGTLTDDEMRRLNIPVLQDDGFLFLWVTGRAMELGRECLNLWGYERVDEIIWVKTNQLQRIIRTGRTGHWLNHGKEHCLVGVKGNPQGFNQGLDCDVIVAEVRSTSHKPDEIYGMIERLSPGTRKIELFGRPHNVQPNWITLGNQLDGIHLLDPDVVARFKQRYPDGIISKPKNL
MettL3–MettL14, sequence (Q9HCE5 whole entry partner): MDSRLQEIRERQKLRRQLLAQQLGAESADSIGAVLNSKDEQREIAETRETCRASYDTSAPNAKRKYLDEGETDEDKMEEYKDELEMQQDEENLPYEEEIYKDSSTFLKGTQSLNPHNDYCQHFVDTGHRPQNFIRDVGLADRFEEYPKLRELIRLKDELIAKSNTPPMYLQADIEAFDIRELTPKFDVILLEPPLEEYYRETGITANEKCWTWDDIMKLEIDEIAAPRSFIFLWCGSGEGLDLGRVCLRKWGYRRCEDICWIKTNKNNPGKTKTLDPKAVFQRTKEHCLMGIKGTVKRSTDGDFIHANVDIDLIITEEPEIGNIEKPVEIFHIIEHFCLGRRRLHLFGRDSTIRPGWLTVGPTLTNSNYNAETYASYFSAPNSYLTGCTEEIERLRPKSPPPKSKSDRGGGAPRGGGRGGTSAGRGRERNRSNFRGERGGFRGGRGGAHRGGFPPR

PRMT3 = PRMT3 (Homo sapiens, UniProt O60678); experiment: PRMT3 inhibition, fluorescence-based SAHH-coupled assay; type: biochemical
PRMT3, sequence (O60678 211-531): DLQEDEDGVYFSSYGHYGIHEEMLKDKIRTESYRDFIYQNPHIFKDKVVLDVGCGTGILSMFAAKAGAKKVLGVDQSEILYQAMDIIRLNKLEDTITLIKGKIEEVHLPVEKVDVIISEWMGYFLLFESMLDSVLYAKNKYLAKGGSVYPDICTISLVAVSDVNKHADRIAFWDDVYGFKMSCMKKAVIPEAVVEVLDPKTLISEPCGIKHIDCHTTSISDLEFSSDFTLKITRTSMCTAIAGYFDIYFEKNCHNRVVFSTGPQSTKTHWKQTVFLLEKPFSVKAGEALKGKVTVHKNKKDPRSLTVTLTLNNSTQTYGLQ

MettL16 = molecular target: T3, MettL16 (Homo sapiens, UniProt Q86W50); experiment: Compound selectivity assay; type: biochemical; details: read-out: inhibition of MettL16 activity, 10 μM compound, 160 μM SAM (Figure 4F)
T3 sequence (Q86W50 1-562): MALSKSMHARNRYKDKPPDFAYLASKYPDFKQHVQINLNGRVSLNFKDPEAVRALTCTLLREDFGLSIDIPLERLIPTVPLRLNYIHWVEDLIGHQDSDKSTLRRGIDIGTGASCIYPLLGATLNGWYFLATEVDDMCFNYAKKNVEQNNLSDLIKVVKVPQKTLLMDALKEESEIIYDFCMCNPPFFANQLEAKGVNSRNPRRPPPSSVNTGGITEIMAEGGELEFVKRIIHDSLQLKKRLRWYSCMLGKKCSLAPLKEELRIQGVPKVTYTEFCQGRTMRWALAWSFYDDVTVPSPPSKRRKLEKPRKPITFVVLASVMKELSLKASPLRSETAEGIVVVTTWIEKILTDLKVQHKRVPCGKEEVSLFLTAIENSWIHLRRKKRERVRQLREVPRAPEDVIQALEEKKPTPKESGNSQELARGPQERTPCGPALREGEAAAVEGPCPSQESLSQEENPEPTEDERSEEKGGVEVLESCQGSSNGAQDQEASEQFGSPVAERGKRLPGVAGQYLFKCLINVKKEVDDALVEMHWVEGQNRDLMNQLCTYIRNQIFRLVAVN

CcrM = CcrM (Caulobacter vibrioides, UniProt P0CAW2); experiment: Compound selectivity assay; type: biochemical; details: read-out: inhibition of CcrM activity, 10 μM compound, 40 μM SAM (Figure 4B)
CcrM, sequence (P0CAW2 whole entry): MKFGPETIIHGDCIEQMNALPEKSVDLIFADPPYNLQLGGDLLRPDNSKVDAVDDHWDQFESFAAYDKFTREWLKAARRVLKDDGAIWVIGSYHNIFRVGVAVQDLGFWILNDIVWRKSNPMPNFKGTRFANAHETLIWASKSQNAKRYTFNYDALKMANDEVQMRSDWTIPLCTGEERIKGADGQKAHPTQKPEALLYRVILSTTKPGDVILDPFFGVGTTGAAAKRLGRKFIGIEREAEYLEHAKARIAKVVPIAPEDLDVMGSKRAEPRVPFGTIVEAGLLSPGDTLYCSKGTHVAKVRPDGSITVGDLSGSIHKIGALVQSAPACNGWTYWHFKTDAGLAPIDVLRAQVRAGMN

MettL5–Trm112 = MettL5–Trm112 (Homo sapiens, UniProt Q9NRN9); experiment: Compound selectivity assay; type: biochemical; details: read-out: inhibition of MettL5–Trm112 activity
MettL5–Trm112, sequence (Q9NRN9 whole entry): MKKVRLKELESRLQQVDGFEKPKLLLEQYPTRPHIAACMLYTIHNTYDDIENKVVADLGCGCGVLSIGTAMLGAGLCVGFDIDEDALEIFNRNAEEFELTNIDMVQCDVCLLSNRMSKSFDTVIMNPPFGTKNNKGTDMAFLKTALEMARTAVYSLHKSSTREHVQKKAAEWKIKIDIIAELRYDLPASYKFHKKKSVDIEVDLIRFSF
MettL5–Trm112, sequence (Q9UI30 whole entry partner): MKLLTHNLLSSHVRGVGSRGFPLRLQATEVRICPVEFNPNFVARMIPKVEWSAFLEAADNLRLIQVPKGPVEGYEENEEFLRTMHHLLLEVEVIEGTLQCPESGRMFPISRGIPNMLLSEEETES

PRMT1 = PRMT1 (Homo sapiens, UniProt Q99873); experiment: PRMT1 inhibition, fluorescence-based SAHH-coupled assay; type: biochemical; details: for IC50: IC50 PRMT1, 0.1 μM PRMT1, 10 μM SAM, 5 μM H4 peptide (1–21)
PRMT1, sequence (Q99873 10-352 isoform Q99873-3): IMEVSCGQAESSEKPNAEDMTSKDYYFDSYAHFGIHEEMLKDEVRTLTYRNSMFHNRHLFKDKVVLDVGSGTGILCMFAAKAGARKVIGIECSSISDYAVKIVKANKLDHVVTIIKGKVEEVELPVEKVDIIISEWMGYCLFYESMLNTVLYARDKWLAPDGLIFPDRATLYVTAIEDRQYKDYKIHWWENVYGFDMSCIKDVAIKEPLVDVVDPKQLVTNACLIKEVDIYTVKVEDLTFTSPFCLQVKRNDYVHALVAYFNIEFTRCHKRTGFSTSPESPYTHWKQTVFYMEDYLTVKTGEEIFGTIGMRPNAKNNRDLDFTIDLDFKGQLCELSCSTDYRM

MettL5 = details: read-out: SAM Km of MettL5; cited from earlier work
CamA [2] = molecular target: T1, CamA; details: read-out: Km of CamA for SAM; previous measurements; cited from earlier work

## N=C(NCCCSC[C@H]1O[C@@H](n2cnc3c(N)ncnc32)[C@H](O)[C@@H]1O)NC1CCCCC1 [6d]
CamA [1]
  inhibition of CamA activity at single concentration: ~60%

## N=C(NCCCSC[C@H]1O[C@@H](n2cnc3c(N)ncnc32)[C@H](O)[C@@H]1O)NCC1CCCCC1 [6e]
Dam
  inhibition at 10 µM: ≤ 50%
PCIF1
  inhibition at 10 µM: ≤ 50%
MettL3–MettL14
  IC50: > 10000 nM
  inhibition at 10 µM: ~50%
PRMT3
  IC50: 6500 nM
MettL16
  inhibition at 10 µM: ≤ 50%
CcrM
  inhibition at 10 µM: ≤ 50%
CamA [1]
  inhibition of CamA activity at single concentration: ~85%
  inhibition of CamA activity (selectivity panel): ≥ 80%
CamA [1]; ratio of IC50 values
  fold improved potency of CamA inhibition relative to SGC0946: > 3 ×
CamA [1]; ratio of IC50 values CamA vs PRMT1
  fold weaker inhibition of CamA than of PRMT1: 12.5 ×
CamA [1]; ratio of IC50 values CamA vs PRMT3
  fold stronger inhibition of CamA than of PRMT3: > 4 ×
MettL5–Trm112
  inhibition at 10 µM: ~50%

## N=C(NCCCSC[C@H]1O[C@@H](n2cnc3c(N)ncnc32)[C@H](O)[C@@H]1O)NCc1ccccc1 [6g]
CamA [1]
  inhibition of CamA activity at single concentration: ~10%

## N=C(NCCSC[C@H]1O[C@@H](n2cnc3c(NCCCc4ccccc4)ncnc32)[C@H](O)[C@@H]1O)NCC1CCCCC1 [11a, 1-(cyclohexylmethyl)-3-(2-((((2S,3S,4R,5R)-3,4-dihydroxy-5-(6-((3-phenylpropyl)amino)-9H-purin-9-yl)tetrahydrofuran-2-yl)methyl)thio)ethyl)guanidine]
PCIF1
  inhibition at 10 µM: ≤ 50%
MettL3–MettL14
  inhibition at 10 µM: ≤ 50%
PRMT3
  IC50: > 100000 nM
PRMT1
  IC50: 14000 nM
PRMT1; ratio of IC50 values
  fold reduction of PRMT1 inhibition from that of 6e: ~116 ×
CamA [1]
  IC50: ~150 nM
  Ki: 90 nM
  inhibition of CamA activity (selectivity panel): ≥ 80%
  fold difference in CamA inhibition between 11a and 11b: 1.8 ×
CamA [1]; ratio of IC50 values
  fold improvement of CamA inhibition relative to 6e: 10 ×
  fold improvement of CamA inhibition relative to 7: 5 ×
CamA [1]; with respect to SAM
  mode of CamA inhibition (Lineweaver–Burk plot): competitive inhibition; also recorded: competitive inhibitor of SAM
MettL5–Trm112
  inhibition at 10 µM: ≤ 50%

## N=C(NCCCSC[C@H]1O[C@@H](n2cnc3c(NCCCc4ccccc4)ncnc32)[C@H](O)[C@@H]1O)NCC1CCCCC1 [11b]
Dam
  inhibition at 10 µM: ≤ 50%
PCIF1
  inhibition at 10 µM: ≤ 50%
MettL3–MettL14
  inhibition at 10 µM: ≤ 50%
MettL16
  inhibition at 10 µM: ≤ 50%
PRMT1
  IC50: 1200 nM
PRMT1; ratio of IC50 values
  fold reduction of PRMT1 inhibition from that of 6e: 10 ×
  fold stronger inhibition of PRMT1 than 11a: > 11 ×
CcrM
  inhibition at 10 µM: ≤ 50%
CamA [1]
  IC50: 270 nM
  fold difference in CamA inhibition between 11a and 11b: 1.8 ×
MettL5–Trm112
  inhibition at 10 µM: ~50%

## Nc1ncnc2c1ccn2[C@@H]1O[C@H]([C@H](O)c2ccccc2)[C@@H](O)[C@H]1O [LLY-283, reference compound]
CamA [1]; 10 μM, Figure 1B, also ref 31
  inhibition of CamA compared with compounds 1–3 (in words): much weaker inhibition

## C[S+](CC[C@H](N)C(=O)[O-])C[C@H]1O[C@@H](n2cnc3c(N)ncnc32)[C@H](O)[C@@H]1O (stereo partly drawn) [SAM, S-Adenosyl-L-methionine]
MettL5
  Km: 1 µM
CamA [1]; read-out: Km of CamA for SAM, Michaelis–Menten, varying SAM (Figure 2E)
  Km: 25 µM
CamA [2]
  Km: > 17 µM

## OC[C@H]1O[C@@H](n2cnc3c(NCCCc4ccccc4)ncnc32)[C@H](O)[C@@H]1O [compound 7, N6-phenylpropyladenosine]
Dam
  inhibition at 10 µM: ≤ 50%
PCIF1
  inhibition at 10 µM: ≤ 50%
MettL3–MettL14
  inhibition at 10 µM: ≤ 50%
PRMT3
  inhibition of PRMT3 (in words): does not significantly inhibit; also recorded: inhibits neither
MettL16
  inhibition at 10 µM: ≤ 50%
PRMT1
  inhibition of PRMT1 (in words): does not significantly inhibit; also recorded: inhibits neither
CcrM
  inhibition at 10 µM: ≤ 50%
MettL5–Trm112
  inhibition at 10 µM: ≤ 50%

From article PMC10127221 (ACS Chemical Biology, 2023)
